Experimental data published in ChEMBL document CHEMBL1201862, “PubChem BioAssay data set” (2004).
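Grown in 96-well plates, cells were treated for 48 hours with each compound at five concentrations. Insufficient inhibition: endpoint recorded as highest concentration tested. GI50: concentration for 50% inhibition of growth.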 The source made the active and inactive calls. Rule as the data show it: active = GI50 up to about 1.1 µM and inactive = higher.

Experiments:
Experiment in all cases: DTP human tumour cell line panel, 48 h
KM-20L2 = tested on: KM-20L2
A498 = tested on: A498
DLD-1 = tested on: DLD-1
COLO 205 = tested on: COLO 205
DMS-273 = tested on: DMS-273
KM12 = tested on: KM12
DMS-114 = tested on: DMS-114
LOX IMVI = tested on: LOX IMVI
EKVX = tested on: EKVX
SNB-75 = tested on: SNB-75
HOP-92 = tested on: HOP-92
ACHN = tested on: ACHN
SNB-78 = tested on: SNB-78
OVCAR-5 = tested on: OVCAR-5
M14 = tested on: M14

Measured: GI50

NC(=O)C(=O)N/N=C1/c2ccccc2CC1C1(O)C(=O)Nc2c(Cl)cc(Cl)cc21 (centres undefined)
inactive: KM-20L2 > 100 µM | A498 > 100 µM | DLD-1 > 100 µM | COLO 205 > 100 µM | DMS-273 > 100 µM | KM12 > 100 µM | DMS-114 > 100 µM | LOX IMVI 88.3 µM | EKVX > 100 µM | SNB-75 97.3 µM | HOP-92 > 100 µM | ACHN > 100 µM | SNB-78 > 100 µM | OVCAR-5 > 100 µM

CC(C)C1=CC2=CC[C@@H]3[C@](C)(CCC[C@@]3(C)C(=O)O)[C@H]2CC1 [ABIETIC ACID]
inactive: KM-20L2 63.2 µM | A498 49.8 µM | DLD-1 > 67.9 µM | COLO 205 40.3 µM | DMS-273 48.1 µM | KM12 37.8 µM | DMS-114 58.9 µM | LOX IMVI 58.6 µM | M14 67.9 µM | EKVX 42.6 µM | SNB-75 55.8 µM | HOP-92 37.2 µM | ACHN 53.8 µM | SNB-78 59.7 µM | OVCAR-5 > 75.5 µM
